Experimental data: patent US20190133997A1, “ARTEMISININ ANALOG, AND USE, METHOD, AND COMPOSITION FOR PROMOTING LIPID CATABOLISM AND IMPROVING SUGAR METABOLISM” (FUDAN UNIVERSITY, priority 2016, published 2019)

Tested on: BMP4-directed C3H10T1/2
Assay: Artemisinin and analogues on BMP4-directed C3H10T1/2 (morphology, Western blot)
Assay type: cell-based
Details: for cell morphology of C3H10T1/2: concentration shown in FIG. 8, from Day 0 of differentiation, vs control
Description: 4.3.1 Culture and Differentiation of C3H10T1/2 According to Method 2.4.1.
Artemisinin, artesunate and dihydroartemisinin were stored in DMSO at a storage concentration of 10 mMol/L. The concentration shown in FIG. 8 was added on Day 0 of differentiation. Fresh medium was replaced every two days, and the corresponding concentrations of compounds were added until the cells differentiated to mature.
The method for extracting C3H10T1/2 cell total protein was the same as 2.4.3;
Western blot method and catalog number of antibody was the same as 2.4.4.

Row | SMILES | cell morphology of C3H10T1/2 | expression of brown fat-related genes (C3H10T1/2) | expression level of UCP1 (dihydroartemisinin 1, 2.5, 5, 7.5 Mol/L, Western blot) | expression level of PGC1α (dihydroartemisinin, Western blot)
1 | C[C@H]1[C@H](OC(=O)CCC(=O)O)O[C@@H]2O[C@@]3(C)CC[C@H]4[C@H](C)CC[C@@H]1[C@@]24OO3 [artesunate] | exhibited similar morphological characteristics | – | – | –
2 | C[C@@H]1CC[C@H]2[C@@H](C)C(=O)O[C@@H]3O[C@@]4(C)CC[C@@H]1[C@]32OO4 [artemisinin] | exhibited similar morphological characteristics | – | – | –
3 | C[C@H]1[C@@H](O)O[C@@H]2O[C@@]3(C)CC[C@H]4[C@H](C)CC[C@@H]1[C@@]24OO3 [dihydroartemisinin] | exhibited similar morphological characteristics | up-regulated | gradually increase with the increase of the concentration of dihydroartemisinin | gradually increase with the increase of the concentration of dihydroartemisinin
